Literature values in US20040167415A1, “Method and system for prevention of radiocontrast nephropathy” (PLC Systems Inc., priority 2003, published 2004).

Columns and labels:
[1] = in 12 hours; healthy people; Edelson et al, J Pharm Sci 1984
[2] = 70 kg adult patient; according to the manufacturer Nycomed Amersham

CC(=O)N(CC(O)CO)c1c(I)c(C(=O)NCC(O)CO)c(I)c(C(=O)NCC(O)CO)c1I (centres unmarked) [iohexol]
contrast eliminated from the body in urine by kidneys [1]: 90% | total volume of distribution [2]: approximately 18 liters
